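Protocol summary: plate cells (96-well), add compound at 5 concentrations, incubate 48 h, interpolate endpoints linearly. The concentration for 50% growth inhibition is given as GI50.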 Active and inactive are the calls of the source. Rule as the data show it: active = GI50 up to about 1.1 µM and inactive = higher.
Columns and labels:
Test in all cases: NCI anticancer screen, dose series, 48 h
MDA-MB-231 = system: MDA-MB-231
TK-10 = system: TK-10
OVCAR-3 = system: OVCAR-3
NCI-H226 = system: NCI-H226
MDA-MB-435 = system: MDA-MB-435
SN12C = system: SN12C
HL-60 = system: HL-60
HCT-15 = system: HCT-15
HCC 2998 = system: HCC 2998
PC-3 = system: PC-3
HOP-92 = system: HOP-92
SK-OV-3 = system: SK-OV-3
SF-295 = system: SF-295
U-251 = system: U-251
Malme-3M = system: Malme-3M
HT-29 = system: HT-29
A498 = system: A498
LOX IMVI = system: LOX IMVI
CCRF-CEM = system: CCRF-CEM
T47D = system: T47D
KM12 = system: KM12
BT-549 = system: BT-549
DU-145 = system: DU-145
M14 = system: M14
SK-MEL-2 = system: SK-MEL-2
ACHN = system: ACHN
NCI-H460 = system: NCI-H460
NCI-H23 = system: NCI-H23
NCI/ADR-RES = system: NCI/ADR-RES
UACC-257 = system: UACC-257
OVCAR-5 = system: OVCAR-5
MDA-N = system: MDA-N
SK-MEL-5 = system: SK-MEL-5
IGROV-1 = system: IGROV-1
UACC-62 = system: UACC-62
Hs-578T = system: Hs-578T
SNB-19 = system: SNB-19
RXF 393 = system: RXF 393
A549 = system: A549
SF-539 = system: SF-539
OVCAR-4 = system: OVCAR-4
MCF7 = system: MCF7
SNB-75 = system: SNB-75
786-0 = system: 786-0
SF-268 = system: SF-268
OVCAR-8 = system: OVCAR-8
COLO 205 = system: COLO 205
HOP-62 = system: HOP-62
UO-31 = system: UO-31
SR = system: SR
HCT-116 = system: HCT-116
SW-620 = system: SW-620
CAKI-1 = system: CAKI-1
NCI-H522 = system: NCI-H522
EKVX = system: EKVX
K562 = system: K562
SK-MEL-28 = system: SK-MEL-28
MOLT-4 = system: MOLT-4
RPMI-8226 = system: RPMI-8226

## CC1(C)CCC2(C(=O)O)C(O)CC3(C)C(=CCC4C5(C)CCC(OC6OCC(O)C(O)C6OC6OCC(O)C(O)C6OC6OCC(O)C(OC7OC(CO)C(O)C(O)C7O)C6O)C(C)(C)C5CCC43C)C2C1 (stereo unspecified)
MDA-MB-231
  GI50: > 100 µM (inactive)
TK-10
  GI50: > 100 µM (inactive)
OVCAR-3
  GI50: > 100 µM (inactive)
NCI-H226
  GI50: 23.7 µM (inactive)
MDA-MB-435
  GI50: 28.4 µM (inactive)
SN12C
  GI50: 23.3 µM (inactive)
HL-60
  GI50: 24.7 µM (inactive)
HCT-15
  GI50: > 100 µM
HCC 2998
  GI50: 40.8 µM (inactive)
PC-3
  GI50: 44.6 µM (inactive)
HOP-92
  GI50: 29.4 µM (inactive)
SK-OV-3
  GI50: 19.8 µM (inactive)
SF-295
  GI50: 20.3 µM (inactive)
U-251
  GI50: 33.7 µM (inactive)
Malme-3M
  GI50: 27.2 µM (inactive)
HT-29
  GI50: > 100 µM (inactive)
A498
  GI50: 26.9 µM (inactive)
LOX IMVI
  GI50: 47.5 µM (inactive)
CCRF-CEM
  GI50: 31 µM (inactive)
T47D
  GI50: 97.1 µM (inactive)
KM12
  GI50: 21.7 µM (inactive)
BT-549
  GI50: 29.7 µM (inactive)
DU-145
  GI50: > 100 µM (inactive)
M14
  GI50: 40.1 µM (inactive)
SK-MEL-2
  GI50: 24.5 µM (inactive)
ACHN
  GI50: 35.1 µM (inactive)
NCI-H460
  GI50: > 100 µM (inactive)
NCI-H23
  GI50: 21 µM (inactive)
NCI/ADR-RES
  GI50: > 100 µM (inactive)
UACC-257
  GI50: 76.4 µM (inactive)
OVCAR-5
  GI50: 33.8 µM (inactive)
MDA-N
  GI50: 20.8 µM (inactive)
SK-MEL-5
  GI50: > 100 µM (inactive)
IGROV-1
  GI50: > 100 µM (inactive)
UACC-62
  GI50: 31.7 µM (inactive)
Hs-578T
  GI50: 28.1 µM (inactive)
SNB-19
  GI50: 20 µM (inactive)
RXF 393
  GI50: 20 µM (inactive)
A549
  GI50: 33.7 µM (inactive)
SF-539
  GI50: > 100 µM (inactive)
OVCAR-4
  GI50: 28.5 µM (inactive)
MCF7
  GI50: > 100 µM (inactive)
SNB-75
  GI50: 17.9 µM (inactive)
786-0
  GI50: > 100 µM (inactive)
SF-268
  GI50: 21.8 µM (inactive)
OVCAR-8
  GI50: > 100 µM (inactive)
COLO 205
  GI50: > 100 µM (inactive)
HOP-62
  GI50: > 100 µM (inactive)
UO-31
  GI50: 17.3 µM (inactive)
SR
  GI50: 4.21 µM (inactive)
HCT-116
  GI50: > 100 µM (inactive)
SW-620
  GI50: 39 µM (inactive)
CAKI-1
  GI50: > 100 µM (inactive)
NCI-H522
  GI50: 19.8 µM (inactive)
EKVX
  GI50: 37.9 µM (inactive)
K562
  GI50: 25.6 µM (inactive)
SK-MEL-28
  GI50: 36.5 µM (inactive)

## C/C(=N\NC(=S)N1CCN(c2ccccn2)CC1)c1cccc(C)n1
MDA-MB-231
  GI50: < 0.01 µM (active)
TK-10
  GI50: 7.78 µM (inactive)
OVCAR-3
  GI50: < 0.01 µM (active)
NCI-H226
  GI50: 2.06 µM (inactive)
MDA-MB-435
  GI50: 3.61 µM (inactive)
SN12C
  GI50: 7.98 µM (inactive)
HL-60
  GI50: 0.0115 µM (active)
MOLT-4
  GI50: < 0.01 µM (active)
HCT-15
  GI50: < 0.01 µM
HCC 2998
  GI50: 11.9 µM (inactive)
PC-3
  GI50: < 0.01 µM (active)
HOP-92
  GI50: 3.81 µM (inactive)
SK-OV-3
  GI50: 8.65 µM (inactive)
SF-295
  GI50: 2.9 µM (inactive)
U-251
  GI50: < 0.01 µM (active)
Malme-3M
  GI50: 2.59 µM (inactive)
HT-29
  GI50: < 0.01 µM (active)
A498
  GI50: 2.75 µM (inactive)
LOX IMVI
  GI50: 2.15 µM (inactive)
CCRF-CEM
  GI50: < 0.01 µM (active)
T47D
  GI50: 0.528 µM (active)
KM12
  GI50: 3.1 µM (inactive)
BT-549
  GI50: 5.26 µM (inactive)
DU-145
  GI50: 2.85 µM (inactive)
M14
  GI50: 0.261 µM (active)
SK-MEL-2
  GI50: 2.15 µM (inactive)
ACHN
  GI50: 3 µM (inactive)
NCI-H460
  GI50: 1.03 µM (active)
NCI-H23
  GI50: 5.58 µM (inactive)
NCI/ADR-RES
  GI50: < 0.01 µM (active)
OVCAR-5
  GI50: 4.03 µM (inactive)
MDA-N
  GI50: 3.14 µM (inactive)
SK-MEL-5
  GI50: 1.53 µM (inactive)
IGROV-1
  GI50: < 0.01 µM (active)
RPMI-8226
  GI50: < 0.01 µM (active)
UACC-62
  GI50: 2.23 µM (inactive)
Hs-578T
  GI50: 12.6 µM (inactive)
SNB-19
  GI50: 7.26 µM (inactive)
RXF 393
  GI50: 1.32 µM (inactive)
A549
  GI50: 3.48 µM (inactive)
SF-539
  GI50: 1.27 µM (inactive)
MCF7
  GI50: < 0.01 µM (active)
SNB-75
  GI50: 3.84 µM (inactive)
786-0
  GI50: 1.9 µM (inactive)
SF-268
  GI50: 1.51 µM (inactive)
COLO 205
  GI50: < 0.01 µM (active)
HOP-62
  GI50: 6.31 µM (inactive)
UO-31
  GI50: 9.14 µM (inactive)
SR
  GI50: 1.44 µM (inactive)
HCT-116
  GI50: < 0.01 µM (active)
SW-620
  GI50: < 0.01 µM (active)
NCI-H522
  GI50: 0.0421 µM (active)
K562
  GI50: 0.585 µM (active)
SK-MEL-28
  GI50: 7.1 µM (inactive)

— ChEMBL document CHEMBL1201862, “PubChem BioAssay data set” (2004)
